Results: patent publication US10526323B2, “Indazole and azaindazole substituted compounds as mGluR4 allosteric potentiators, compositions, and methods of treating neurological dysfunction” (Vanderbilt University, priority 2015, dated 2020)

Molecular target: mGluR4 (UniProt Q14833)
Assay: mGluR4 potentiation assay: increase in response to an EC20 concentration of agonist (species not given)
Type: cell-based
Settings: EC50 for potentiation of mGluR4; table does not state human or rat
Description: The disclosed compounds and compositions can be evaluated for their ability to act as a potentiator of metabotropic glutamate receptor activity, in particular mGluR4 activity, by any suitable known methodology known in the art. For example, Chinese Hamster Ovary (CHO) cells transfected with human mGluR4 or […] co-transfected with rat mGluR4 and the G-protein regulated Inwardly Rectifying Potassium channel (GIRK) were plated in clear bottom assay plates for assay in a Hamamatsu FDSS Fluorometric Plate Reader. The cells were loaded with either a Ca2+-sensitive fluorescent dye or the thallium responsive dye and the plates were washed and placed into a suitable kinetic plate reader. For human mGluR4 assays, a fluorescence baseline was established for 3-5 seconds, the disclosed compounds were then added to the cells, and the response in cells was measured. Approximately two and a half minutes later, a concentration of mGluR4 orthosteric agonist (e.g. glutamate or L-AP4) eliciting approximately 20% (EC20) of the maximal agonist response was added to the cells, and the response was measured. Two minutes later, a concentration of mGluR4 agonist (e.g. glutamate or L-AP4) eliciting 80% (EC80) of the maximal agonist response was added to the cells, and the response was measured. For rat mGluR4/GIRK experiments, a baseline was established for approximately five seconds, disclosed compounds were added, and either an EC20 or EC80 concentration of agonist was added approximately two and one half minutes later. Potentiation of the agonist response of mGluR4 by the disclosed compounds was observed as an increase in response to the EC20 concentration of agonist in the presence of compound compared to the response to agonist in the absence of compound. Similarly, antagonism of the agonist response of mGluR4 by the disclosed compounds was observed as a decrease in response to the EC80 concentration of agonist in the presence of compound compared to the response to agonist in the absence of compound.
The above described assay operated in two modes. In the first mode, a range of concentrations of the disclosed compounds are added to cells, followed by a single fixed concentration of agonist. If the compound acts as a potentiator, an EC50 value for potentiation and a maximum extent of potentiation by the compound at this concentration of agonist is determined by non-linear curve fitting. If the compound acts as a noncompetitive antagonist, an IC50 value is determined by non-linear curve fitting. In the second mode, several fixed concentrations of the disclosed compounds are added to various wells on a plate, followed by a range in concentrations of agonist for each concentration of disclosed compound. The EC50 values for the agonist at each concentration of compound are determined by non-linear curve fitting. A decrease in the EC50 value of the agonist with increasing concentrations of the sample compound (a leftward shift of the agonist concentration-response curve) is an indication of the degree of mGluR4 potentiation at a given concentration of the sample compound. A decrease in the maximal response of the agonist with increasing concentrations of the sample compounds, with or without a rightward shift in agonist potency, is an indication of the degree of noncompetitive antagonism at mGluR4. The second mode also indicates whether the sample compounds also affect the maximum response to mGluR4 to agonists.
These compounds are positive allosteric modulators (potentiators) of human and rat mGluR4 and were selective for mGluR4 compared to the other seven subtypes of metabotropic glutamate receptors.

| EC50 | SMILES |
| --- | --- |
| 653 nM | Cn1nc(C(=O)NC2CCC2)c2ccc(Nc3n[nH]c4cccnc34)cc21 [Example 176, N-cyclobutyl-1-methyl-6-(1H-pyrazolo[4,3-b]pyridin-3-ylamino)indazole-3-carboxamide] |
| 367 nM | CCC(C)n1nc(C)c2cc(Nc3n[nH]c4cccnc34)ccc21 (stereo not drawn) [Example 102, N-(1-(sec-butyl)-3-methyl-1H-indazol-5-yl)-1H-pyrazolo[4,3-b]pyridin-3-amine] |
| 133 nM | Cc1nn(C(C)C)c2ccc(Nc3n[nH]c4cccnc34)cc12 [Example 61, N-(1-isopropyl-3-methyl-1H-indazol-5-yl)-1H-pyrazolo[4,3-b]pyridin-3-amine] |
| 167 nM | c1cnc2c(Nc3ccc4c(cnn4CC4CCC4)c3)n[nH]c2c1 [Example 80, N-(1-(cyclobutylmethyl)-1H-indazol-5-yl)-1H-pyrazolo[4,3-b]pyridin-3-amine] |
| 765 nM | Cn1nc(C(=O)N2CC[C@H](F)C2)c2ccc(Nc3n[nH]c4cccnc34)cc21 [Example 171, [(3S)-3-fluoropyrrolidin-1-yl]-[1-methyl-6-(1H-pyrazolo[4,3-b]pyridin-3-ylamino)indazol-3-yl]methanone] |
| > 10000 nM | [2H]C([2H])([2H])n1nc(Cl)c2cc(Nc3n[nH]c4cccnc34)ccc21 [Example 282, N-(3-chloro-1-(methyl-d3)-1H-indazol-5-yl)-1H-pyrazolo[4,3-b]pyridin-3-amine] |
| 4600 nM | Cc1ccccc1Cc1nn(C)c2cc(Nc3n[nH]c4nccnc34)ccc12 [Example 49, N-(1-methyl-3-(2-methylbenzyl)-1H-indazol-6-yl)-1H-pyrazolo[3,4-b]pyrazin-3-amine] |
| 2340 nM | Cn1nc(C(=O)N2CCC(S(C)(=O)=O)C2)c2ccc(Nc3n[nH]c4cccnc34)cc21 (stereo not drawn) [Example 170, [1-methyl-6-(1H-pyrazolo[4,3-b]pyridin-3-ylamino)indazol-3-yl]-(3-methylsulfonylpyrrolidin-1-yl)methanone] |
| 2990 nM | FC1(F)CC(Cn2nc(Cl)c3cc(Nc4n[nH]c5cccnc45)ccc32)C1 [Example 287, N-(3-chloro-1-((3,3-difluorocyclobutyl)methyl)-1H-indazol-5-yl)-1H-pyrazolo[4,3-b]pyridin-3-amine] |
| 4000 nM | CC1CCC(=O)N1c1nn(C)c2cc(Nc3n[nH]c4cccnc34)ccc12 (stereo not drawn) [Example 42, 1-(6-((1H-pyrazolo[4,3-b]pyridin-3-yl)amino)-1-methyl-1H-indazol-3-yl)-5-methylpyrrolidin-2-one] |
| 3530 nM | Cn1ncc2ncc(Nc3n[nH]c4nccnc34)cc21 [Example 148, N-(1-methyl-1H-pyrazolo[4,3-b]pyridin-6-yl)-1H-pyrazolo[3,4-b]pyrazin-3-amine] |
| 571 nM | Cc1cc(Cn2ncc3c(Nc4n[nH]c5cccnc45)cccc32)no1 [Example 32, N-(1-((5-methylisoxazol-3-yl)methyl)-1H-indazol-4-yl)-1H-pyrazolo[4,3-b]pyridin-3-amine] |
| 1110 nM | Cn1nc(C(=O)N2CCC(F)CC2)c2ccc(Nc3n[nH]c4cccnc34)cc21 [Example 164, (4-fluoro-1-piperidyl)-[1-methyl-6-(1H-pyrazolo[4,3-b]pyridin-3-ylamino)indazol-3-yl]methanone] |
| 4610 nM | Cn1nc(C(=O)NCCCS(C)(=O)=O)c2ccc(Nc3n[nH]c4cccnc34)cc21 [Example 169, 1-methyl-N-(3-methylsulfonylpropyl)-6-(1H-pyrazolo[4,3-b]pyridin-3-ylamino)indazole-3-carboxamide] |
| 218 nM | [2H]C([2H])([2H])n1nc(C)c2cc(Nc3n[nH]c4cccnc34)ccc21 [Example 123, N-(3-methyl-1-(methyl-d3)-1H-indazol-5-yl)-1H-pyrazolo[4,3-b]pyridin-3-amine] |
| 749 nM | c1cnc2c(Nc3ccc4nn(CC5CCC5)cc4c3)n[nH]c2n1 [Example 87, N-(2-(cyclobutylmethyl)-2H-indazol-5-yl)-1H-pyrazolo[3,4-b]pyrazin-3-amine] |
| > 10000 nM | Cc1nn(CCO)c2ccc(Nc3n[nH]c4cccnc34)cc12 [Example 94, 2-(5-((1H-pyrazolo[4,3-b]pyridin-3-yl)amino)-3-methyl-1H-indazol-1-yl)ethan-1-ol] |

| EC50 | SMILES |
| --- | --- |
| 482 nM | Cn1nc(Oc2ccc(C#N)cn2)c2c(Cl)cc(Nc3n[nH]c4cccnc34)cc21 [Example 207, 6-[4-chloro-1-methyl-6-(1H-pyrazolo[4,3-b]pyridin-3-ylamino)indazol-3-yl]oxypyridine-3-carbonitrile] |
| 718 nM | COc1cc(Nc2n[nH]c3cccnc23)cc2c1cnn2C [Example 52, N-(4-methoxy-1-methyl-1H-indazol-6-yl)-1H-pyrazolo[4,3-b]pyridin-3-amine] |
| 371 nM | CC(C)n1ncc2cc(Nc3n[nH]c4cccnc34)cnc21 [Example 152, N-(1-isopropyl-1H-pyrazolo[3,4-b]pyridin-5-yl)-1H-pyrazolo[4,3-b]pyridin-3-amine] |
| 59 nM | C=CCn1nc(C)c2cc(Nc3n[nH]c4cccnc34)ccc21 [Example 109, N-(1-allyl-3-methyl-1H-indazol-5-yl)-1H-pyrazolo[4,3-b]pyridin-3-amine] |
| 310 nM | Cc1nn(CC(C)(F)F)c2ccc(Nc3n[nH]c4cccnc34)cc12 [Example 139, N-(1-(2,2-difluoropropyl)-3-methyl-1H-indazol-5-yl)-1H-pyrazolo[4,3-b]pyridin-3-amine] |
| 290 nM | Cc1cc(Cn2nc(Cl)c3cc(Nc4n[nH]c5cccnc45)ccc32)no1 [Example 279, N-(3-chloro-1-((5-methylisoxazol-3-yl)methyl)-1H-indazol-5-yl)-1H-pyrazolo[4,3-b]pyridin-3-amine] |
| > 10000 nM | c1ccc2c(Nc3cnc4cnn(CC5CCC5)c4c3)n[nH]c2c1 [Example 27, 1-(cyclobutylmethyl)-N-(1H-indazol-3-yl)-1H-pyrazolo[4,3-b]pyridin-6-amine] |
| 128 nM | Cn1nc(C2CC2)c2ccc(Nc3n[nH]c4ccccc34)cc21 [Example 12, N-(3-cyclopropyl-1-methyl-1H-indazol-6-yl)-1H-indazol-3-amine] |
| 171 nM | Cn1nc(Cl)c2ccc(Nc3n[nH]c4cccnc34)cc21 [Example 31, N-(3-chloro-1-methyl-1H-indazol-6-yl)-1H-pyrazolo[4,3-b]pyridin-3-amine] |
| 238 nM | Cn1nc(OCCN2CCOCC2)c2ccc(Nc3n[nH]c4cccnc34)cc21 [Example 217, N-[1-methyl-3-(2-morpholinoethoxy)indazol-6-yl]-1H-pyrazolo[4,3-b]pyridin-3-amine] |
| 322 nM | Cn1nc(OCCN2CCOCC2)c2c(Cl)cc(Nc3n[nH]c4cccnc34)cc21 [Example 209, N-[4-chloro-1-methyl-3-(2-morpholinoethoxy)indazol-6-yl]-1H-pyrazolo[4,3-b]pyridin-3-amine] |
| > 10000 nM | Cc1c2cc(Nc3n[nH]c4cccnc34)ccc2nn1C(C)C [Example 59, N-(2-isopropyl-3-methyl-2H-indazol-5-yl)-1H-pyrazolo[4,3-b]pyridin-3-amine] |
| 379 nM | COCCn1nc(C)c2cc(Nc3n[nH]c4cccnc34)ccc21 [Example 133, N-(1-(2-methoxyethyl)-3-methyl-1H-indazol-5-yl)-1H-pyrazolo[4,3-b]pyridin-3-amine] |
| 119 nM | Cn1nc(Oc2cccc(C#N)n2)c2ccc(Nc3n[nH]c4cccnc34)cc21 [Example 231, 6-((6-((1H-pyrazolo[4,3-b]pyridin-3-yl)amino)-1-methyl-1H-indazol-3-yl)oxy)picolinonitrile] |
| 46 nM | Cn1nc(OC2CCOCC2)c2ccc(Nc3n[nH]c4cccnc34)cc21 [Example 225, N-(1-methyl-3-((tetrahydro-2H-pyran-4-yl)oxy)-1H-indazol-6-yl)-1H-pyrazolo[4,3-b]pyridin-3-amine] |
| 582 nM | Cn1ncc2cc(Nc3n[nH]c4cccnc34)cnc21 [Example 151, N-(1-methyl-1H-pyrazolo[3,4-b]pyridin-5-yl)-1H-pyrazolo[4,3-b]pyridin-3-amine] |
